How the values were obtained:
Assay type in all cases: in vivo, Swiss-Webster mice
neutrophils [1] = assay: Neutrophils by complete blood count on day 8, dosing day 1, 3, 5; conditions: Mus musculus, Neutrophil, 192 h, mice, oral gavage, measured on day 8, read-out: Neutrophils % Increase Over Control; for change in vivo at 200 mg/kg: 200 mg/kg on day 1, day 3 and day 5; for change in vivo at 100 mg/kg: 100 mg/kg on day 1, day 3 and day 5; for change in vivo at 20 mg/kg: 20 mg/kg on day 1, day 3 and day 5
Protocol: (§1) To examine the effect of compounds and methods of the present invention on increasing white blood cells, the following studies were performed. In one series of experiments, male Swiss-Webster mice were administered various compounds of the present invention via oral gavage using a ball-tipped gavage needle. […] Animals were dosed once daily for 3 or 4 days. Six hours after the final dosing, 200 μl blood samples were collected and total white blood cell, neutrophil, and lymphocyte levels were measured by complete blood count (CBC) using a CellDyn cell analyzer (Abbott Laboratories).
(§2) In another series of experiments, male Swiss-Webster mice were administered various compounds (see Table 7 and Table 8) of the present invention via oral gavage using a ball-tipped gavage needle. […] Total WBC, neutrophil, lymphocyte, and monocyte levels were measured in mice as described above on day 8 following administration of compound on day 1, day 3, and day 5.

neutrophils [2] = assay: as above; conditions: mice, oral gavage, measured on day 8; for change in vivo at 6 mg/kg: Mus musculus, Neutrophil, 192 h, read-out: Neutrophils % Increase Over Control
[3] = system: total white blood cell (WBC); assay: Total white blood cells by complete blood count on day 8, dosing day 1, 3, 5; conditions: Mus musculus, 192 h, mice, oral gavage, measured on day 8, read-out: Total WBC % Increase Over Control; for change in vivo at 200 mg/kg: 200 mg/kg on day 1, day 3 and day 5; for change in vivo at 100 mg/kg: 100 mg/kg on day 1, day 3 and day 5; for change in vivo at 20 mg/kg: 20 mg/kg on day 1, day 3 and day 5
Protocol: as §1, §2

[4] = system: total white blood cell (WBC); assay: as above; conditions: mice, oral gavage, measured on day 8; for change in vivo at 6 mg/kg: Mus musculus, 192 h, read-out: Total WBC % Increase Over Control
lymphocytes = assay: Lymphocytes by complete blood count on day 8, dosing day 1, 3, 5; conditions: mice, oral gavage, measured on day 8
Protocol: as §1, §2

monocytes = assay: Monocytes by complete blood count on day 8, dosing day 1, 3, 5; conditions: mice, oral gavage, measured on day 8
[5] = 200 mg/kg on day 1, day 3 and day 5
[6] = Mus musculus, Lymphocyte, 192 h, 200 mg/kg on day 1, day 3 and day 5, read-out: Lymphocytes % Increase Over Control
[7] = 100 mg/kg on day 1, day 3 and day 5
[8] = Mus musculus, Lymphocyte, 192 h, 100 mg/kg on day 1, day 3 and day 5, read-out: Lymphocytes % Increase Over Control
[9] = 6 mg/kg on day 1, day 3 and day 5
[10] = Mus musculus, Lymphocyte, 192 h, 6 mg/kg on day 1, day 3 and day 5, read-out: Lymphocytes % Increase Over Control
[11] = 20 mg/kg on day 1, day 3 and day 5
[12] = Mus musculus, Lymphocyte, 192 h, 20 mg/kg on day 1, day 3 and day 5, read-out: Lymphocytes % Increase Over Control
[13] = Mus musculus, Monocyte, 192 h, 20 mg/kg on day 1, day 3 and day 5, read-out: Monocytes % Increase Over Control
[14] = 60 mg/kg on day 1, day 3 and day 5

C[C@@H](c1ccccc1)n1c(Cl)c(Cl)c2c(O)c(C(=O)NCC(=O)O)nc(C#N)c21 [Compound AL, {[(S)-2,3-Dichloro-7-cyano-4-hydroxy-1-(1-phenyl-ethyl)-1H-pyrrolo[2,3-c]pyridine-5-carbonyl]-amino}-acetic acid]
change in vivo at 200 mg/kg (neutrophils [1]): 265% | Neutrophils (neutrophils [2]; [5]): 2.8 10^3 cells/μl | change in vivo at 200 mg/kg [3]: 207% | Total WBC [4, 5]: 18.2 10^3 cells/μl | change in vivo at 200 mg/kg (lymphocytes; [6]): 205% | Lymphocytes (lymphocytes; [5]): 15.3 10^3 cells/μl | change in vivo at 200 mg/kg (monocytes; Mus musculus, Monocyte, 192 h, 200 mg/kg on day 1, day 3 and day 5, read-out: Monocytes % Increase Over Control): 33% | Monocytes (monocytes; [5]): 0.1 10^3 cells/μl

N#Cc1nc(C(=O)NCC(=O)O)c(O)c2ccn(Cc3ccccc3F)c12 [Compound I, {[7-Cyano-1-(2-fluoro-benzyl)-4-hydroxy-1H-pyrrolo[2,3-c]pyridine-5-carbonyl]-amino}-acetic acid]
change in vivo at 100 mg/kg (neutrophils [1]): 17% | Neutrophils (neutrophils [2]; [7]): 0.8 10^3 cells/μl | change in vivo at 100 mg/kg [3]: 95% | Total WBC [4, 7]: 13.1 10^3 cells/μl | change in vivo at 100 mg/kg (lymphocytes; [8]): 127% | Lymphocytes (lymphocytes; [7]): 12.1 10^3 cells/μl | change in vivo at 100 mg/kg (monocytes; Mus musculus, Monocyte, 192 h, 100 mg/kg on day 1, day 3 and day 5, read-out: Monocytes % Increase Over Control): 425% | Monocytes (monocytes; [7]): 0.2 10^3 cells/μl

Cc1nc(C(=O)NCC(=O)O)c(O)c2cccc(Oc3ccccc3)c12 [Compound AC, [(4-Hydroxy-1-methyl-8-phenoxy-isoquinoline-3-carbonyl)-amino]-acetic acid]
change in vivo at 100 mg/kg (neutrophils [1]): 96% | Neutrophils (neutrophils [2]; [7]): 1.0 10^3 cells/μl | change in vivo at 100 mg/kg [3]: 94% | Total WBC [4, 7]: 9.2 10^3 cells/μl | change in vivo at 100 mg/kg (lymphocytes; [8]): 95% | Lymphocytes (lymphocytes; [7]): 8.0 10^3 cells/μl | Monocytes (monocytes; [7]): 0.1 10^3 cells/μl

O=C(O)CNC(=O)c1ncc2cc(Oc3ccc(F)c(F)c3)ccc2c1O [Compound V, {[7-(3,4-Difluoro-phenoxy)-4-hydroxy-isoquinoline-3-carbonyl]-amino}-acetic acid]
change in vivo at 100 mg/kg (neutrophils [1]): 132% | Neutrophils (neutrophils [2]; [7]): 0.8 10^3 cells/μl | change in vivo at 100 mg/kg [3]: 145% | Total WBC [4, 7]: 7.1 10^3 cells/μl | change in vivo at 100 mg/kg (lymphocytes; [8]): 146% | Lymphocytes (lymphocytes; [7]): 6.1 10^3 cells/μl | Monocytes (monocytes; [7]): 0.1 10^3 cells/μl

Cc1nc(C(=O)NCC(=O)O)c(O)c2cccc(Oc3ccc(F)cc3)c12 [Compound AE, {[8-(4-Fluoro-phenoxy)-4-hydroxy-1-methyl-isoquinoline-3-carbonyl]-amino}-acetic acid]
change in vivo at 6 mg/kg (neutrophils [2]; [9]): 175% | Neutrophils (neutrophils [2]; [9]): 1.1 10^3 cells/μl | change in vivo at 6 mg/kg [4, 9]: 109% | Total WBC [4, 9]: 12.3 10^3 cells/μl | change in vivo at 6 mg/kg (lymphocytes; [10]): 105% | Lymphocytes (lymphocytes; [9]): 11.0 10^3 cells/μl | Monocytes (monocytes; [9]): 0.1 10^3 cells/μl

CCCCCCn1cc(Cl)c2c(O)c(C(=O)NCC(=O)O)nc(C#N)c21 [Compound AS, [(3-Chloro-7-cyano-1-hexyl-4-hydroxy-1H-pyrrolo[2,3-c]pyridine-5-carbonyl)-amino]-acetic acid]
change in vivo at 20 mg/kg (neutrophils [1]): 42% | Neutrophils (neutrophils [2]; [11]): 0.9 10^3 cells/μl | change in vivo at 20 mg/kg [3]: 24% | Total WBC [4, 11]: 7.2 10^3 cells/μl | change in vivo at 20 mg/kg (lymphocytes; [12]): 24% | Lymphocytes (lymphocytes; [11]): 6.0 10^3 cells/μl | change in vivo at 20 mg/kg (monocytes; [13]): -8% | Monocytes (monocytes; [11]): 0.2 10^3 cells/μl

N#Cc1nc(C(=O)NCC(=O)O)c(O)c2cc(Oc3ccc(F)cc3)ccc12 [Compound D, {[1-Cyano-6-(4-fluoro-phenoxy)-4-hydroxy-isoquinoline-3-carbonyl]-amino}-acetic acid]
change in vivo at 100 mg/kg (neutrophils [1]): 242% | Neutrophils (neutrophils [2]; [7]): 1.3 10^3 cells/μl | change in vivo at 100 mg/kg [3]: 152% | Total WBC [4, 7]: 10.8 10^3 cells/μl | change in vivo at 100 mg/kg (lymphocytes; [8]): 140% | Lymphocytes (lymphocytes; [7]): 9.3 10^3 cells/μl | Monocytes (monocytes; [7]): 0.2 10^3 cells/μl

Cc1cccc(Oc2cccc3c(C#N)nc(C(=O)NCC(=O)O)c(O)c23)c1 [Compound AY, {[1-Cyano-4-hydroxy-5-m-tolyloxy-isoquinoline-3-carbonyl]-amino}-acetic acid]
change in vivo at 20 mg/kg (neutrophils [1]): 9% | Neutrophils (neutrophils [2]; [11]): 0.7 10^3 cells/μl | change in vivo at 20 mg/kg [3]: 19% | Total WBC [4, 11]: 7.5 10^3 cells/μl | change in vivo at 20 mg/kg (lymphocytes; [12]): 21% | Lymphocytes (lymphocytes; [11]): 6.5 10^3 cells/μl | change in vivo at 20 mg/kg (monocytes; [13]): 8% | Monocytes (monocytes; [11]): 0.2 10^3 cells/μl

CC(C)Oc1ccc2c(O)c(C(=O)NCC(=O)O)nc(C#N)c2c1 [Compound H, [(1-Cyano-4-hydroxy-7-isopropoxy-isoquinoline-3-carbonyl)-amino]-acetic acid]
change in vivo at 100 mg/kg (neutrophils [1]): 135% | change in vivo at 200 mg/kg (neutrophils [1]): 6% | Neutrophils (neutrophils [2]; [7]): 1.6 10^3 cells/μl | Neutrophils (neutrophils [2]; [5]): 0.7 10^3 cells/μl | change in vivo at 100 mg/kg [3]: 120% | change in vivo at 200 mg/kg [3]: 783% | Total WBC [4, 7]: 9.4 10^3 cells/μl | Total WBC [4, 5]: 37.8 10^3 cells/μl | change in vivo at 100 mg/kg (lymphocytes; [8]): 120% | change in vivo at 200 mg/kg (lymphocytes; [6]): 963% | Lymphocytes (lymphocytes; [7]): 7.7 10^3 cells/μl | Lymphocytes (lymphocytes; [5]): 37.0 10^3 cells/μl | Monocytes (monocytes; [7]): 0.1 10^3 cells/μl | Monocytes (monocytes; [5]): 0.1 10^3 cells/μl

COc1cccc(Cn2ccc3c(O)c(C(=O)NCC(=O)O)nc(C#N)c32)c1 [Compound M, {[7-Cyano-4-hydroxy-1-(3-methoxy-benzyl)-1H-pyrrolo[2,3-c]pyridine-5-carbonyl]-amino}-acetic acid]
Neutrophils (neutrophils [2]; [14]): 0.6 10^3 cells/μl | change in vivo at 60 mg/kg [3, 14]: 149% | Total WBC [4, 14]: 9.7 10^3 cells/μl | change in vivo at 60 mg/kg (lymphocytes; Mus musculus, Lymphocyte, 192 h, 60 mg/kg on day 1, day 3 and day 5, read-out: Lymphocytes % Increase Over Control): 126% | Lymphocytes (lymphocytes; [14]): 7.5 10^3 cells/μl | change in vivo at 60 mg/kg (monocytes; Mus musculus, Monocyte, 192 h, 60 mg/kg on day 1, day 3 and day 5, read-out: Monocytes % Increase Over Control): 100% | Monocytes (monocytes; [14]): 0.1 10^3 cells/μl

COc1cccc(Oc2ccc3c(O)c(C(=O)NCC(=O)O)nc(C#N)c3c2)c1 [Compound BE, {[1-Cyano-4-hydroxy-7-(3-methoxy-phenoxy)-isoquinoline-3-carbonyl]-amino}-acetic acid]
change in vivo at 6 mg/kg (neutrophils [2]; [9]): 30% | Neutrophils (neutrophils [2]; [9]): 1.0 10^3 cells/μl | change in vivo at 6 mg/kg [4, 9]: 39% | Total WBC [4, 9]: 9.6 10^3 cells/μl | change in vivo at 6 mg/kg (lymphocytes; [10]): 40% | Lymphocytes (lymphocytes; [9]): 8.1 10^3 cells/μl | change in vivo at 6 mg/kg (monocytes; Mus musculus, Monocyte, 192 h, 6 mg/kg on day 1, day 3 and day 5, read-out: Monocytes % Increase Over Control): 71% | Monocytes (monocytes; [9]): 0.3 10^3 cells/μl

O=C(O)CNC(=O)c1ncc2c(Oc3ccccc3)cccc2c1O [Compound AB, [(4-Hydroxy-8-phenoxy-isoquinoline-3-carbonyl)-amino]-acetic acid]
change in vivo at 6 mg/kg (neutrophils [2]; [9]): 398% | Neutrophils (neutrophils [2]; [9]): 2.8 10^3 cells/μl | change in vivo at 6 mg/kg [4, 9]: 78% | Total WBC [4, 9]: 9.8 10^3 cells/μl | change in vivo at 6 mg/kg (lymphocytes; [10]): 42% | Lymphocytes (lymphocytes; [9]): 6.8 10^3 cells/μl | Monocytes (monocytes; [9]): 0.2 10^3 cells/μl

Source: US20110039879A1, “METHODS FOR INCREASING WHITE BLOOD CELLS” (FibroGen ,Inc., priority 2007, published 2011)
